Reference: US20050137251A1, “Dexanabinol and dexanabinol analogs regulate inflammation related genes” (priority 2002, published 2005)

Columns and labels:
COX-2 gene expression = COX-2 gene expression in activated Jurkat T cells; format: cell-based, human; conditions: 10 μM, normalized to GAPDH
Method: II reverse transcriptase (Life Technologies).
The human acute lymphoma T cell line Jurkat (ATCC # TIB 152) was used to test the possible immunosuppressive effect of dexanabinol and its analogs on T cell activation. The Jurkat cells were grown in RPMI 1640 medium with 2 mM L-glutamine adjusted to contain 1.5 g/L sodium bicarbonate, 4.5 g/L glucose, 10 mM HEPES, 1.0 mM sodium pyruvate, and 10% heat inactivated fetal bovine serum. Cells were grown in tissue culture flasks and seeded at appropriate density into 24 wells tissue culture plates. 2×10^6 cells in one milliliter were stimulated using 10 ng/ml of PMA (Sigma) and 1 μM A23187 calcium ionophore (Sigma). […] The controls and test compounds were added at indicated concentrations one hour before stimulation.
In addition, we used this experimental system to test the impact of dexanabinol and its analogs on COX-2 gene expression. Following activation of Jurkat cells with PMA and calcium ionophore we obtained elevated COX-2 gene expression levels. The impact of the test compounds on COX-2 was assessed as previously described for IL-2. FIG. 2 depicts the results of this experiment as fold activation of COX-2 over non-activated T cells. The results are plotted after normalization to GAPDH expression. […]

MCP-1 gene expression = MCP-1 gene expression in MCAo mice brains; conditions: 5 mg/kg i.v., 18 hours of MCAo
IL-6 gene expression = IL-6 gene expression in MCAo mice brains; conditions: 5 mg/kg i.v., 18 hrs following MCAo
IL-2 gene expression = IL-2 gene expression in Jurkat T cells activated with PMA and calcium ionophore; format: cell-based, human; conditions: 10 μM, RNA 6 hrs after activation
Method: The human acute lymphoma T cell line Jurkat (ATCC # TIB 152) was used to test the possible immunosuppressive effect of dexanabinol and its analogs on T cell activation. […] 2×10^6 cells in one milliliter were stimulated using 10 ng/ml of PMA (Sigma) and 1 μM A23187 calcium ionophore (Sigma). […] The controls and test compounds were added at indicated concentrations one hour before stimulation.
The results are plotted after normalization to cyclophilin A expression.

[1] = test system: activated microglia cells; test: Activated microglia (F4/80 immunohistochemistry) in hippocampus of LPS injected mice brains; format: in vivo; conditions: 20 mg/kg, 72 hours after LPS
Method: The local i.c.v. injection of LPS in mice brain stimulates a wide range of inflammatory responses and cascades where various cytokines and chemokines are implicated. Following the results obtained in examples 3 and 4, we decided to assess the effect of additional active compounds of the invention on other genes involved in the inflammatory response. Specifically, we tested the impact of dexanabinol and PRS-211,092, both at 20 mg/kg, on the expression of pro-inflammatory IL-1β cytokine. The protocol was basically as previously described with minor modifications. The amount of LPS injected in the mice brain was raised to 250 ng and the animals were sacrificed 24 hours after LPS and treatment injection for mRNA analysis, carried out as previously described. Moreover, some animals were kept alive and sacrificed 72 hours after LPS and treatment injection for immunohistochemical analysis. For this purpose, after euthanizing the animals by injecting i.p. 100 mg/kg of sodium pentobarbitone, brains were removed and fixed in 4% formaldehyde for at least 72 hours. Brains were then washed with PBS and transferred for cryoprotection in a solution of 30% sucrose in PBS, until they sank. […] Quantitative analysis was carried out by counting the number of immunoreactive cells/mm^2 at the level of the hippocampus.

[2] = test system: TH-immunoreactive cells at the SNpc (MPTP-induced dopaminergic toxicity); test: MPTP short-term model: TH immunoreactive cells at the SNpc; format: in vivo, mice
Method: The mice (C57/BL male mice, average weight 30 g, Harlan, Israel) were administered i.p. with 4 injections of MPTP (Sigma, USA) (20 mg/kg, 5 ml/kg) in saline (Teva Medical Israel) at 2 hours interval on day 1. The test compounds and vehicle control (cremophor:ethanol diluted in saline) were injected i.p. once just before the first MPTP administration at a volume dose of 5 ml/kg. Dexanabinol was tested at 10, 20, and 30 mg/kg and PRS-211,220 was tested at 0.5, 1, and 5 mg/kg. Each treatment group was composed of at least seven animals. Seven days following the MPTP treatment the animals are euthanized by i.p. administration of 100 mg/kg pentobarbitone sodium (CTS, Israel) and their brains are removed for tyrosine hydroxylase (TH) detection using immunohistochemistry.
Brains were fixed by immersion in 4% formaldehyde for at least 72 hours. The brains were then washed with PBS and transferred to 30% sucrose in PBS until they sank. […] Quantitative analysis was carried out by counting the number of TH-immunoreactive cells/mm^2 at the widest area of the SNpc.
Treatment of the animals with the test compounds results in a dose-dependent preservation of the TH-IR cells. Percent preservation is calculated by dividing the number of rescued cells (treatment-MPTP) by the maximal possible number of rescued cells (saline-MPTP). […]

iNOS gene expression = iNOS gene expression in MCAo mice brains; conditions: 5 mg/kg i.v., 18 hrs following MCAo
[3] = test system: carrageenan induced paw edema; test: Carrageenan induced paw edema; format: in vivo, mice; conditions: doses ranging from 0.2 to 0.5 mg/kg i.p., 3 hours after carrageenan

CCCCCCC(C)(C)c1cc(O)c2c(c1)OC(C)(C)[C@H]1CC=C(CO)C[C@H]21 [dexanabinol, 1,1-dimethylheptyl-(3S,4S)-7-hydroxy-Δ^6-tetrahydrocannabinol]
Inhibition of COX-2 gene expression (COX-2 gene expression): 88%
Reduction of MCP-1 gene expression increase vs vehicle (MCP-1 gene expression): 41%
Modulation of IL-6 gene expression (IL-6 gene expression): not modulated
Reduction of IL-2 fold of activation (IL-2 gene expression): 41%
Reduction of the amount of activated microglia vs vehicle [1]: 40%
Preservation of TH-IR cells ([2]; 20 mg/kg i.p., seven days after MPTP): about 25%
Effect of increasing the dose on TH-IR cell preservation ([2]; 30 mg/kg vs 20 mg/kg): no significant effect
Modulation of iNOS gene expression (iNOS gene expression): not modulated
Reduction in paw thickness [3]: about 29%
